Target: T1, KRAS protein (His-tagged GDP-loaded G12D 1-169) (Homo sapiens, UniProt P01116, G12D)
T1 construct: His-tagged GDP-loaded G12D 1-169
Experiment: Covalent modification of KRAS protein, intact-protein LC-MS
Assay type: binding
Conditions: 24hrs at room temperature, KRAS protein ~2 µM
Outline: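 Percent covalent modification derives from deconvoluted intact-mass intensities of compound-adducted versus unmodified KRAS, measured by LC-ESI-MS. Before analysis, ~2 µM GDP-loaded His-KRAS 1-169 was exposed to compound for 24 h at room temperature and acidified with formic acid.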

N#Cc1ccn(C(=O)N2C3CCC2CN(c2nc(OC[C@@]45CCCN4C[C@H](F)C5)nc4c(F)c(-c5ccc(F)c6sc(N)c(C#N)c56)c(Cl)cc24)C3)n1 [Compound A224, 1-(3-(7-(2-amino-3-cyano-7-fluorobenzo[b]thiophen-4-yl)-6-chloro-8-fluoro-2-(((2R,7aS)-2-fluorotetrahydro-1H-pyrrolizin-7a(5H)-yl)methoxy)quinazolin-4-yl)-3,8-diazabicyclo[3.2. 1]octane-8-carbonyl)-1H-pyrazole-3-carbonitrile]
% G12D Modification at 24 hr.: ++ (++ indicates between about 1%- 20% labelling)

— patent EP4389751A1, “HETEROCYCLIC COMPOUNDS AND USES THEREOF” (Kumquat Biosciences Inc., priority 2021, dated 2024)
